We go through one compound from ChEMBL document CHEMBL6096665 (Eur J Med Chem, 2025).

For orientation: EC50 means the concentration at which the effect is half-maximal. Low values mean greater potency, high ones weaker potency.

For the assay, the target named is T1, Bile acid receptor (Homo sapiens, UniProt Q96RI1).
T1 sequence (Q96RI1 whole entry): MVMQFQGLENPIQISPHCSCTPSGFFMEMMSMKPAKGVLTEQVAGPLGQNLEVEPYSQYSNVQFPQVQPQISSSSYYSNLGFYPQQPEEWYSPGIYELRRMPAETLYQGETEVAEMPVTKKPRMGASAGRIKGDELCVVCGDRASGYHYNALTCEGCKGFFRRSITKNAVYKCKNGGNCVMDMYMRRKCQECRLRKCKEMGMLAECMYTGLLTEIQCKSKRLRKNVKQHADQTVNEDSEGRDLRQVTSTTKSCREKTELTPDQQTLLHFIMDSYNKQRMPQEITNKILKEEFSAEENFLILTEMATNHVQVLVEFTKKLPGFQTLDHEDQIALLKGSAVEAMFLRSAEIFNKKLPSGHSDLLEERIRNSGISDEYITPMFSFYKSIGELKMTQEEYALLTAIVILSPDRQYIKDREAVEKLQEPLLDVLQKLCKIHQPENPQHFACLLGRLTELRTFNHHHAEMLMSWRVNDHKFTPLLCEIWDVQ
As to the kind of experiment: Agonist activity at FXR-LBD (unknown origin) incubated for 3 hrs using fluorescein coactivator peptide by FRET assay.

Compound `O=C(O)c1ccc(OCc2ccc(OCc3c(-c4c(Cl)cccc4Cl)noc3C3CC3)cc2)cc1` returned an EC50 of 253 nM.
